Source: US10538497B2, “Compounds as indoleamine 2,3-dioxygenase inhibitors” (Merck Sharp & Dohme Corp., priority 2015, dated 2020)

Experiments:
IDO1 [1] = target: T1, IDO1 (Homo sapiens (Human), UniProt P14902); experiment: IDO1 Cellular Assay in Hela Cells Stimulated with IFNγ; assay type: cell-based; conditions: Hela cells stimulated with IFNγ 100 ng/mL; read-out: IDO1 HELA Cell Assay, IC50
IDO1 [2] = target: T1, IDO1; experiment: IDO1 Human Whole Blood Assay; assay type: cell-based; conditions: LPS and IFNγ 100 ng/mL, kynurenine by LC/MS/MS
Experimental: IDO1 Human Whole Blood Assay
LPS and IFNγ was prepared in RPMI to a 10× of final conc. (1000 ng/mL), final concentration is 100 ng/mL.
Human whole blood was drawn in sodium heparin coated tubes from healthy internal donors. Two hundred fourty μL of blood was transferred to each of the wells of a v-bottom 96 well plate. Thirty μL of compound was transferred from intermediate dilution plate, and incubated for 15 min. […] from stimulants was then transferred to blood and mixed thoroughly. Plate was covered with breathable membrane and incubated at 37° C. for overnight (18 h).
On day 2 isotope labeled standard of kunurenine and tryptophan was made in water at 10× concentration and 30 μL was added to the blood at 3 μM final concentration. The assay plates were centrifuged at 300×G for 10 min with no brake to separate plasma from red blood cells. Sixty μL of plasma samples was removed without disturbing red blood cells. Plasma was diluted with RPMI in 1:1 ratio and proteins were precipitated out with two volume of Acetonitrile. The plates was centrifuged at 4000×G for 60 min. Twenty μL of supernatant was carefully transferred to a 384 well plate contain 40 μL of 0.1% formic acid in water and analysed by LC/MS/MS.
LC/MS/MS analyses were performed using Thermo Fisher's LX4-TSQ Quantum Ultra system. This system consists of four Agilent binary high-performance liquid chromatography (HPLC) pumps and a TSQ Quantum Ultra triple quadrupole MS/MS instrument. For each sample, 5 μL were injected onto an Atlantis T3 column column (2.1 mm×150 mm, 3 μm particle size) from Waters. The mobile phase gradient pumped at 0.8 mL/min was used to elute the analytes from the column at 25° C. The elution started at 0% B increasing linearly to 25% B at 6.5 min, holding at 25% for 1 min, re-equilibrating to 10 min. Mobile phase A consisted of 0.1% formic acid in water. Mobile phase B consisted of 0.1% of formic acid in acetonitrile. Data was acquired in positive mode using a HESI interface. The operational parameters for the TSQ Quantum Ultra instrument were a spray voltage of 4000 V, capillary temperature of 380° C., vaporizer temperature 400° C., shealth gas 60 arbitrary units, Aux gas 20 arbitrary units, tube lens 85 and collision gas 1.2 mTorr. SRM chromatograms of kynurenine (Q1: 209.2>Q3:94.0) and internal standard (Q1: 215.3>Q3:98.2) were collected for 90 sec. The peak area was integrated by Xcalibur Quan software. The ratios between the kynurenine generated in the reaction and 2D6-Kynurenine spiked-in internal standard were used to generate percentage inhibition and IC50 values. Compounds were titrated and IC50's were calculated by 4 parameter sigmoidal curve fitting formula.

IDO1 [3] = target: T1, IDO1; experiment: IDO1 Cellular Assay in Frozen HEK293 Cells Transiently Transfected with Human IDO1; assay type: cell-based; conditions: HEK293 cells transiently transfected with human IDO1; read-out: IDO1 HEK293 Cell Assay, IC50
IDO1 [4] = target: T1, IDO1; experiment: IDO1 Enzyme Assay; conditions: HIS-tagged recombinant IDO1, 40 nM
[5] = read-out: IDO1 Enzyme Assay, IC50

T1 sequence (P14902 whole entry): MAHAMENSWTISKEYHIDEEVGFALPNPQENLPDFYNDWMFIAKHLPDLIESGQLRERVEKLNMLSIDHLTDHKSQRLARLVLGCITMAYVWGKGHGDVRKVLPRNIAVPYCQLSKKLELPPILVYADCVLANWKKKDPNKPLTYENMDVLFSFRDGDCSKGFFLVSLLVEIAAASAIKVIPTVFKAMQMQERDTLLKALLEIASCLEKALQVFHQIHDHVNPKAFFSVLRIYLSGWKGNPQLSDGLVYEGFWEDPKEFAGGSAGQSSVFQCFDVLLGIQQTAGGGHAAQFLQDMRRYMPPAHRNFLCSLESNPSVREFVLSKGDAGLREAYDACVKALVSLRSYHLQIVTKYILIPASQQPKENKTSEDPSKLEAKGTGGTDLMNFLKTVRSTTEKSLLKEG

Structure (SMILES)	IC50 (IDO1 [1])	IC50 (IDO1 [2])	IC50 (IDO1 [3])	IC50 (IDO1 [4]; IDO1 Enzyme Assay, IC50, nM)	IC50 (IDO1 [4]; [5])
CC(C)(O)C(O)CSc1nonc1/C(=N/O)Nc1ccc(F)c(Cl)c1 (single isomer, unassigned) [Example 189, N-(3-chloro-4-fluorophenyl)-4-[(2,3-dihydroxy-3-methylbutyl)sulfanyl]-N′-hydroxy-1,2,5-oxadiazole-3-carboximidamide]	66 nM	704 nM	39.9 nM	69.4 nM	
CC(C)(O)C(O)CSc1nonc1/C(=N/O)Nc1ccc(F)c(Cl)c1 (single isomer, unassigned) [Example 190, N-(3-chloro-4-fluorophenyl)-4-[(2,3-dihydroxy-3-methylbutyl)sulfanyl]-N′-hydroxy-1,2,5-oxadiazole-3-carboximidamide]	111 nM	1390 nM	56.8 nM	79.1 nM	
OCC(O)CSc1nonc1/C(=N/O)Nc1ccc(F)c(Br)c1 (stereo not shown) [Example 17, (Z)-N-(3-bromo-4-fluorophenyl)-4-((2,3-dihydroxypropyl)thio)-N′-hydroxy-1,2,5-oxadiazole-3-carboximidamide]	39.5 nM	441 nM	42.5 nM		34.8 nM
CC(C)(O)C(O)CSc1nonc1/C(=N/O)Nc1ccc(F)c(Br)c1 (stereo not shown) [Example 29, N-(3-bromo-4-fluorophenyl)-4-((2,3-dihydroxy-3-methylbutyl)thio)-N′-hydroxy-1,2,5-oxadiazole-3-carboximidamide]	61 nM	784 nM	23.6 nM	81.3 nM	
CC(C)(O)C(O)CSc1nonc1/C(=N/O)Nc1ccc(F)c(Br)c1 (stereo not shown) [Example 30, N-(3-bromo-4-fluorophenyl)-4-((2,3-dihydroxy-3-methylbutyl)thio)-N′-hydroxy-1,2,5-oxadiazole-3-carboximidamide]	84.2 nM	891 nM	29.4 nM	85.3 nM	
COCCNS(=O)(=O)NCCSc1nonc1/C(=N/O)Nc1ccc(F)c(Br)c1 [Example 31, N-(3-bromo-4-fluorophenyl)-N′-hydroxy-4-((2-((N-(2-methoxyethyl)sulfamoyl)amino)ethyl)thio)-1,2,5-oxadiazole-3-carboximidamide]	37.4 nM	643 nM	10.2 nM		43.4 nM
O=c1ccc(CSc2nonc2/C(=N/O)Nc2ccc(F)c(Br)c2)n[nH]1 [Example 35, N-(3-bromo-4-fluorophenyl)-N′-hydroxy-4-(((6-oxo-1,6-dihydropyridazin-3-yl)methyl)thio)-1,2,5-oxadiazole-3-carboximidamide]	64.6 nM	923 nM	77.7 nM		34.9 nM
CNc1c(NCCSc2nonc2/C(=N/O)Nc2ccc(F)c(Br)c2)c(=O)c1=O [Example 36, N-(3-bromo-4-fluorophenyl)-N′-hydroxy-4-((2-((2-(methylamino)-3,4-dioxocyclobut-1-en-1-yl)amino)ethyl)thio)-1,2,5-oxadiazole-3-carboximidamide]	94.8 nM	7110 nM	206 nM		
CC(=O)NCCSc1nonc1/C(=N/O)Nc1ccc(F)c(C#N)c1 [Example 37, N-(2-((4-(N-(3-cyano-4-fluorophenyl)-N′-hydroxycarbamimidoyl)-1,2,5-oxadiazol-3-yl)thio)ethyl)acetamide]	59.4 nM	469 nM	83.1 nM		104 nM
N#Cc1cc(N/C(=N\O)c2nonc2SCCNC(=O)C2CC2)ccc1F [Example 40, N-(2-((4-(N-(3-cyano-4-fluorophenyl)-N′-hydroxycarbamimidoyl)-1,2,5-oxadiazol-3-yl)thio)ethyl)cyclopropanecarboxamide]	182 nM	1670 nM	92.1 nM		76.2 nM
CNC(=O)CSc1nonc1/C(=N/O)Nc1ccc(F)c(Br)c1 [Example 41, 2-((4-(N-(3-bromo-4-fluorophenyl)-N′-hydroxycarbamimidoyl)-1,2,5-oxadiazol-3-yl)thio)-N-methylacetamide]	17.6 nM	150 nM	22.2 nM		43.1 nM
